Test results as given in ChEMBL document CHEMBL1138495, “Inhibition of subgenomic hepatitis C virus RNA replication by acridone derivatives: identification of an NS3 helicase inhibitor” (J Med Chem, 2009).
Converted amounts (≈) assume the structure as drawn. The source made the active and inactive calls. The calls are words filed in the database; no cut-off is given here.

Columns and labels:
[1] = system: Hepacivirus hominis; assay: Inhibition of HCV recombinant NS5B RNA polymerase expressed in Escherichia coli up to 100 uM by liquid scintillation counter
[2] = system: Hepatitis C virus; assay: Antiviral activity against HCV infected in human HuH5.2 assessed as inhibition of viral RNA synthesis after 4 days by Steady-Glo-luciferase assay; format: functional, organism-based, Hepacivirus hominis; conditions: Huh-5-2, 96 h
[3] = Cytostatic activity against human HuH5.2 after 3 days by MTS/PMS assay; format: ADME, Huh-5-2; conditions: HuH5.2 cells
[4] = Inhibition of ATPase activity of HCV […] expressed in Escherichia coli; design: species or system Hepacivirus hominis
[5] = system: Bovine viral diarrhea virus 1; assay: Antiviral activity against Bovine viral diarrhea virus infected in MDBK cells assessed as inhibition of virus-induced cytopathic effect after 4 to 5 days by microscopy; format: functional, organism-based; conditions: Bovine viral diarrhea virus isolates and strains
[6] = Cytotoxicity against MDBK cells after 3 days by MTS/PMS method; format: cell-based, Bos taurus; conditions: cattle
[7] = target: DNA topoisomerase 2-alpha (Homo sapiens) (UniProt P11388); assay: Inhibition of human topoisomerase 2
[8] = system: Vero; assay: Cytostatic activity against african green monkey Vero cells; format: ADME, cell-based; conditions: chlorocebus sabaeus
[9] = system: Vero; assay: Cytostatic activity against african green monkey Vero cells in presence of guanosine; format: ADME, cell-based; conditions: chlorocebus sabaeus

Sequence of DNA topoisomerase 2-alpha (Homo sapiens) (P11388 whole entry): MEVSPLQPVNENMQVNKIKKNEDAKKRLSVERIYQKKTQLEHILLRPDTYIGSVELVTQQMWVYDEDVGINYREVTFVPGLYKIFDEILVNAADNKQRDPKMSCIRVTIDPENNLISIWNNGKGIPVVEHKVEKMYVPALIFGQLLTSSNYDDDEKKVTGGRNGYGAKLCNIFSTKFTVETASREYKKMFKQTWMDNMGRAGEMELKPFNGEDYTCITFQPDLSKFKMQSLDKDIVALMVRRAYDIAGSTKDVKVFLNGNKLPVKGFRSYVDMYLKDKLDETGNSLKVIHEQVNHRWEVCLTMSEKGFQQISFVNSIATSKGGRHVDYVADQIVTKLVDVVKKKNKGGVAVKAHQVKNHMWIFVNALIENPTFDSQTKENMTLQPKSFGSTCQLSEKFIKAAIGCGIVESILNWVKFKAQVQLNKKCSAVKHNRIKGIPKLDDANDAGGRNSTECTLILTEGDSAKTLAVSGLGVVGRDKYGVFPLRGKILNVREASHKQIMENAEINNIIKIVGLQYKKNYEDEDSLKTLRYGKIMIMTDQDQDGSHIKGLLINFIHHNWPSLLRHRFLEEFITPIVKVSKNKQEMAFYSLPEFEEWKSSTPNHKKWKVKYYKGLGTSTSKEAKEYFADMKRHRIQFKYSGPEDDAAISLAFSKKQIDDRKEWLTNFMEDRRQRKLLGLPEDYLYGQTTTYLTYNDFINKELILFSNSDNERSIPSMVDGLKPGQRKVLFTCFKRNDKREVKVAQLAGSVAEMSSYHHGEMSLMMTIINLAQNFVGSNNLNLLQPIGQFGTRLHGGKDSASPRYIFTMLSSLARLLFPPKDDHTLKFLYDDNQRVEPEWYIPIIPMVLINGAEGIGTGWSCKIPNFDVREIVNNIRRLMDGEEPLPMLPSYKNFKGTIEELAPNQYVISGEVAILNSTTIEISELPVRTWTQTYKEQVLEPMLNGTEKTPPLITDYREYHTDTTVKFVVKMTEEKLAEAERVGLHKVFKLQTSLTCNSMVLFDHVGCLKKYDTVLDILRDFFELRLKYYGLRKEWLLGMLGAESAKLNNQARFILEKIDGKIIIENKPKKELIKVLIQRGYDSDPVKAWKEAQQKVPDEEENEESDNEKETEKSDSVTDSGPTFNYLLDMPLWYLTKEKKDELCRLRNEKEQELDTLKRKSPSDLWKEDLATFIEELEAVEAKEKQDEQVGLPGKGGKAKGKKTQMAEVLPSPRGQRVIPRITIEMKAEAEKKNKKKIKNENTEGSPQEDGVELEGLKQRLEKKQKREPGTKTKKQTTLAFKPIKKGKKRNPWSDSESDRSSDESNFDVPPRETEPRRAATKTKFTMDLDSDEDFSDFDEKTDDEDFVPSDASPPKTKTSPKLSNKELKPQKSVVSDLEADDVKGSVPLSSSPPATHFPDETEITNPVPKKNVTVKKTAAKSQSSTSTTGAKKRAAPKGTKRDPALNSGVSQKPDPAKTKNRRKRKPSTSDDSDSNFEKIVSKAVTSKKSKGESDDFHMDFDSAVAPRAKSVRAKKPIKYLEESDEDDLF

SMILES	Activity [1]	EC50 [2]	CC50 at 72 h [3]	IC50 [4]	EC50 [5]	CC50 at 72 h [6]	Activity [7]	Activity [8]	Activity [9]
COc1cc(OC)cc(N(C)c2ccc(N)c(N3CCN(c4ccccn4)CC3)c2)c1	inactive	4.1 µg/mL (≈ 9.77 µM)	7.2 µg/mL (≈ 17.2 µM)	> 1000 µM					
Cc1cc(C)c2c(=O)c3cc(N)c(N4CCN(c5ccccn5)CC4)cc3n(C)c2c1C	inactive	5 µg/mL (≈ 11.7 µM)	> 50 µg/mL	> 1000 µM					
CCn1c2cc(Cl)c(N)cc2c(=O)c2c(O)cc(OC)cc21	inactive	4.5 µg/mL (≈ 14.1 µM)	> 50 µg/mL	> 1000 µM					
CCn1c2cc(N3CCN(c4ccccn4)CC3)c(N)cc2c(=O)c2c(OC)cc(OC)cc21	inactive	4 µg/mL (≈ 8.7 µM)	11 µg/mL (≈ 23.9 µM)	> 1000 µM					
COc1cc(OC)c2c(=O)c3cc(F)c(N4CCN(c5ccccn5)CC4)cc3n(C)c2c1	inactive	> 50 µg/mL	> 50 µg/mL	> 1000 µM					
COc1cc(O)c2c(=O)c3cc(N)c(N4CCN(c5nc6ccccc6o5)CC4)cc3n(C)c2c1	inactive	50 µg/mL (≈ 106 µM)	> 50 µg/mL	> 1000 µM					
Cn1c2cc(Cl)c(N)cc2c(=O)c2c(O)cc(O)cc21	inactive	1.48 µg/mL (≈ 5.09 µM)	3 µg/mL (≈ 10.3 µM)	> 1000 µM	0.4 µg/mL (≈ 1.38 µM)	5 µg/mL (≈ 17.2 µM)	inactive		
COc1cc(OC)c2c(=O)c3cc(N)c(Cl)cc3n(CCC(C)C)c2c1	inactive	> 50 µg/mL	> 50 µg/mL	> 1000 µM					
COc1cc(O)c2c(=O)c3cc(N)c(Cl)cc3n(C)c2c1	inactive	14 µg/mL (≈ 45.9 µM)	41 µg/mL (≈ 135 µM)	> 1000 µM	0.7 µg/mL (≈ 2.3 µM)	14 µg/mL (≈ 45.9 µM)			
Nc1cc2c(=O)c3c(O)cc(O)cc3[nH]c2cc1Cl	inactive	19 µg/mL (≈ 68.7 µM)	25 µg/mL (≈ 90.4 µM)	> 1000 µM					
COc1cc(OC)c2c(=O)c3cc(N)c(N4CCN(c5ccccn5)CC4)cc3n(CCC(C)C)c2c1	inactive	10 µg/mL (≈ 19.9 µM)	10 µg/mL (≈ 19.9 µM)	> 1000 µM					
COc1cc(OC)c2c(=O)c3cc(N)c(Cl)cc3[nH]c2c1	inactive	5.7 µg/mL (≈ 18.7 µM)	13 µg/mL (≈ 42.7 µM)	> 1000 µM					
CCOc1cc(OC)cc2c1c(=O)c1cc(N)c(N3CCN(c4ccccn4)CC3)cc1n2C	inactive	4 µg/mL (≈ 8.7 µM)	> 50 µg/mL	> 1000 µM					
COc1cc(OC)c2c(=O)c3cc(N)c(Cl)cc3n(C)c2c1	inactive	20 µg/mL (≈ 62.7 µM)	> 50 µg/mL	> 1000 µM	> 100 µg/mL	20 µg/mL (≈ 62.7 µM)			
COc1cc(OC)cc(N(C)c2cc(N3CCN(c4ccccn4)CC3)c(N)cc2C(=O)O)c1	inactive	> 50 µg/mL	> 50 µg/mL	> 1000 µM					
COc1cc(OC)c2c(=O)c3cc(N)c(N4CCN(c5ccc(C(F)(F)F)cn5)CC4)cc3n(C)c2c1	inactive	> 50 µg/mL	> 50 µg/mL	> 1000 µM					
COc1cc(O)c2c(=O)c3cc(N)c(OC)cc3n(C)c2c1	inactive	18 µg/mL (≈ 59.9 µM)	> 50 µg/mL	> 1000 µM					
Cn1c2cc(N3CCN(c4ccccc4)CC3)c(N)cc2c(=O)c2c(O)cc(O)cc21	inactive	4.4 µg/mL (≈ 10.6 µM)	16.2 µg/mL (≈ 38.9 µM)	> 1000 µM					
COc1cc(OCC(C)C)c2c(=O)c3cc(N)c(N4CCN(c5ccccn5)CC4)cc3n(C)c2c1	inactive	3.8 µg/mL (≈ 7.79 µM)	27 µg/mL (≈ 55.4 µM)	> 1000 µM				Toxic	Non-toxic
COc1cc(OC)c2c(=O)c3cc(N)c(N4CCN(c5ccccn5)CC4)cc3[nH]c2c1	inactive	4 µg/mL (≈ 9.27 µM)	19 µg/mL (≈ 44 µM)	> 1000 µM					
CCn1c2cc(Cl)c(N)cc2c(=O)c2c(OC)cc(OC)cc21	inactive	5 µg/mL (≈ 15 µM)	14 µg/mL (≈ 42.1 µM)	> 1000 µM					
CCCOc1cc(OC)cc2c1c(=O)c1cc(N)c(N3CCN(c4ccccn4)CC3)cc1n2C	inactive	17 µg/mL (≈ 35.9 µM)	> 50 µg/mL	> 1000 µM					
COc1cc(O)c2c(=O)c3cc(N)c(N4CCN(c5ccccc5)CC4)cc3n(C)c2c1	inactive	2.03 µg/mL (≈ 4.72 µM)	8.5 µg/mL (≈ 19.7 µM)	> 1000 µM					
